Key:
brain mitochondria = experiment: Brain (hypothalamus) mitochondrial morphology, citrate synthase staining; format: in vivo, mouse; settings: single oral dose 120 mg/kg, HFD-fed mice
Description: Preventing mitochondrial fission in the liver improves insulin sensitivity in mice with diet-induced obesity, while blocking fission in anorexigenic hypothalamic POMC neurons reduces food intake by restoring leptin sensitivity (A. Santoro, et al., 2017; and M. Schneeberger, et al., 2013, cited supra). To determine whether sphingolipid-like compound 893 was also effective in the hypothalamus, mitochondrial morphology was assessed in the brains of the same mice evaluated in FIG. 13. Due to the increased time required to remove the organ, brain mitochondria were visualized in fixed tissues by immunofluorescence microscopy rather than by NADH/NADPH autofluorescence. […] Sphingolipid-like compound 893 reversed these HFD-induced changes in mitochondrial morphology in the brains of 3 out of 4 animals examined (FIG. 14). […]
MEFs were washed twice with PBS and fixed with 4% paraformaldehyde for 10 min at RT. […] NADH/NADPH autofluorescence was detected with 740 nm excitation and 450±50 nm detectors using a Mai Tai two-photon laser. Fluorescence microscopy was performed on a Zeiss LSM 780 confocal using a 63× oil objective with a […] numerical aperture (NA) or using a Nikon TE2000-S inverted epifluorescence microscope with a 100× oil objective (1.3 NA) and a Photometrics CoolSNAP ES2 monochrome CCD camera. […]

ob/ob mice = experiment: Leptin-deficient ob/ob mice: food intake, body weight, OGTT; format: in vivo, mouse
Description: To more rigorously assess the role of leptin in the anti-obesogenic effects of sphingolipid-like compound 893, the response of leptin-deficient ob/ob mice to sphingolipid-like compound 893 was measured. As expected, ob/ob mice were hyperphagic and became obese on the standard chow diet provided by University Lab Animal Resources (16% kcal from fat). Ob/ob animals were used in experiments once they attained an equivalent body weight to C57BL/6J mice fed the HFD for 24 weeks (FIG. 36).
Mice were fasted for 6 h prior to blood glucose testing at ZT10. When sphingolipid-like compound 893 treatment was combined with an OGTT, mice were treated at ZT6. Once baseline fasting blood glucose was determined using a handheld blood glucose meter (Prodigy Diabetes Care, Charlotte, N.C.) and a drop of blood collected from a tail vein nick, mice were gavaged with an oral glucose solution (20% w/v in water, 2 g/kg bodyweight) and blood glucose measured in a drop of tail vein blood at 0, 15, 30, 60 and 120 min. The area under the curve was determined using Graphpad Prism software.
Mice were singly housed and allowed to acclimate for 72 h before food intake was monitored. Food consumption was determined by monitoring the weight of food in the hopper. Initial food and body weight measurements were taken at ZT9 and final measurements were taken 16 h later to capture the active period where most consumption occurred. Home cage feeding studies were performed with C57BL/6J mice maintained on a HFD for 24 weeks (33 weeks of age), or ob/ob mice at 8 weeks of age. Mice received vehicle or 120 mg/kg sphingolipid-like compound 893 by gavage at ZT8.5. For experiments involving leptin, 18 week old, SD fed (16% kcal from fat, 2020×, Envigo) C57BL/6J mice received vehicle or 120 mg/kg sphingolipid-like compound 893 by gavage at ZT8.5. At ZT11.5, vehicle (20 mM Tris-Cl, pH 8.0) or 2 mg/kg recombinant mouse leptin (498-OB, R&D Systems, Minneapolis, Minn.) was delivered by intraperitoneal injection. The same 8 mice were used for all treatments following a 48 h washout period, and treatments were administered in the following order: vehicle, sphingolipid-like compound 893, leptin, and leptin+sphingolipid-like compound 893. All data collected from one mouse was excluded due to inadvertent pharyngeal administration during gavage reducing the n from 8 to 7 (FIG. 5a-d). […] One ob/ob mouse died during Echo MRI for unknown reasons after 6 d of treatment with sphingolipid-like compound 893; data from this mouse was analyzed prior to death.

With `CCCCCCCCc1ccc([C@H]2CCN[C@@H]2CO)cc1.Cl` [compound 893] the “Animals with reversal of HFD-induced changes in brain mitochondrial morphology” value (brain mitochondria) was 3 out of 4, the “Cumulative food intake, repeated dosing” value (ob/ob mice; 120 mg/kg Mon/Wed/Fri for 2 weeks) was “only a modest decrease in cumulative food intake” and the “Fasting hyperglycemia and glucose tolerance” value (ob/ob mice; 120 mg/kg Mon/Wed/Fri, OGTT at 14 d) was “failed to correct fasting hyperglycemia or restore glucose tolerance”. The “Food intake after a single dose” value (ob/ob mice; single oral dose 120 mg/kg) was “decreased food intake” and the Body weight gain (ob/ob mice; six doses of 120 mg/kg over 2 weeks) was 5%.
